Assay results from ChEMBL document CHEMBL1201861, “Genomics of Drug Sensitity in Cancer screening data, Wellcome Trust Sanger Institute”.

How the values were obtained:
NCI-H596 = assay: cells; format: functional, cell-based; conditions: Homo sapiens;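 also: growth inhibition of NCI-H596 cells, read out with a cell viability assay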
Description: SANGER: Inhibition of human NCI-H596 cell growth in a cell viability assay.

DK-MG = assay: cells; format: functional, cell-based; conditions: Homo sapiens;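 also: growth inhibition of DK-MG cells, read out with a cell viability assay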
Description: SANGER: Inhibition of human DK-MG cell growth in a cell viability assay.

K052 = assay: cells; format: functional, cell-based, Homo sapiens; conditions: Homo sapiens, K052;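 also: Read-out from a cell viability assay, IC50 reflecting suppression of K052 cell growth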
Description: SANGER: Inhibition of human K052 cell growth in a cell viability assay.

KYSE-140 = assay: cells; format: functional, cell-based; conditions: Homo sapiens;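 also: cell viability assay measuring growth inhibition in human KYSE-140 cells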
Description: SANGER: Inhibition of human KYSE-140 cell growth in a cell viability assay.

LB373-MEL-D = assay: cells; format: functional, cell-based, Homo sapiens; conditions: Homo sapiens, LB373-MEL-D;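 also: growth inhibition of the cell line, read out in a cell viability assay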
Description: SANGER: Inhibition of human LB373-MEL-D cell growth in a cell viability assay.

ST486 = assay: SANGER: Inhibition of human ST486 cell growth in a cell viability assay.; format: functional, cell-based; conditions: Homo sapiens, ST486
LB647-SCLC = assay: cells; format: functional, cell-based, Homo sapiens; conditions: Homo sapiens, LB647-SCLC;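 also: cell growth inhibition, read out by a viability assay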
Description: SANGER: Inhibition of human LB647-SCLC cell growth in a cell viability assay.

A-431 = assay: cells; format: functional, cell-based; conditions: Homo sapiens;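 also: growth inhibition of A-431 cells, determined with a cell viability read-out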
Description: SANGER: Inhibition of human A431 cell growth in a cell viability assay.

HT-1376 = assay: cells; format: functional, cell-based; conditions: Homo sapiens
Description: SANGER: Inhibition of human HT-1376 cell growth in a cell viability assay.

NCI-H322M = assay: cells; format: functional, cell-based, Homo sapiens; conditions: Homo sapiens, NCI-H322M;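 also: cell viability assay measuring inhibition of growth of human NCI-H322M cells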
Description: SANGER: Inhibition of human NCI-H322M cell growth in a cell viability assay.

Ca-Ski = assay: cells; format: functional, cell-based; conditions: Homo sapiens;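 also: cell viability assay measuring inhibition of Ca-Ski cell growth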
Description: SANGER: Inhibition of human Ca-Ski cell growth in a cell viability assay.

NCI-H1882 = assay: cells; format: functional, cell-based, Homo sapiens; conditions: Homo sapiens, NCI-H1882;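 also: growth inhibition of the cell line, determined with a viability assay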
Description: SANGER: Inhibition of human NCI-H1882 cell growth in a cell viability assay.

HCC1954 = assay: cells; format: functional, cell-based; conditions: Homo sapiens;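 also: growth inhibition of human HCC1954 cells, read out with a cell viability assay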
Description: SANGER: Inhibition of human HCC1954 cell growth in a cell viability assay.

SK-MEL3 = assay: cells; format: functional, cell-based, SK-MEL-3; conditions: Homo sapiens;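 also: growth inhibition of human SK-MEL-3 cells, read out with a cell viability assay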
Description: SANGER: Inhibition of human SK-MEL-3 cell growth in a cell viability assay.

BL-70 = assay: SANGER: Inhibition of human BL-70 cell growth in a cell viability assay.; format: functional, cell-based; conditions: Homo sapiens, BL-70
HGC-27 = assay: cells; format: functional, cell-based; conditions: Homo sapiens;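 also: growth inhibition of human HGC-27 cells, read out in a cell viability assay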
Description: SANGER: Inhibition of human HGC-27 cell growth in a cell viability assay.

NCI-H2052 = assay: cells; format: functional, cell-based; conditions: Homo sapiens;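 also: growth inhibition of NCI-H2052 cells, read out with a cell viability assay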
Description: SANGER: Inhibition of human NCI-H2052 cell growth in a cell viability assay.

NCI-H1522 = assay: cells; format: functional, cell-based, Homo sapiens; conditions: Homo sapiens, NCI-H1522;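 also: growth inhibition of NCI-H1522 cells, read out with a cell viability assay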
Description: SANGER: Inhibition of human NCI-H1522 cell growth in a cell viability assay.

RVH-421 = assay: cells; format: functional, cell-based; conditions: Homo sapiens
Description: SANGER: Inhibition of human RVH-421 cell growth in a cell viability assay.

CESS = assay: SANGER: Inhibition of human CESS cell growth in a cell viability assay.; format: functional, cell-based; conditions: Homo sapiens, CESS
SW1783 = assay: cells; format: functional, cell-based; conditions: Homo sapiens
Description: SANGER: Inhibition of human SW1783 cell growth in a cell viability assay.

SW48 = assay: cells; format: functional, cell-based; conditions: Homo sapiens;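 also: growth inhibition of SW48 cells, read out with a cell viability assay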
Description: SANGER: Inhibition of human SW48 cell growth in a cell viability assay.

A204 = assay: cells; format: functional, cell-based; conditions: Homo sapiens;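 also: growth inhibition of human A204 cells, read out with a cell viability assay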
Description: SANGER: Inhibition of human A204 cell growth in a cell viability assay.

HCC1395 = assay: cells; format: functional, cell-based; conditions: Homo sapiens;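 also: growth inhibition of HCC1395 cells, read out by a cell viability assay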
Description: SANGER: Inhibition of human HCC1395 cell growth in a cell viability assay.

SK-HEP1 = assay: cells; format: functional, cell-based, SK-HEP-1; conditions: Homo sapiens;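 also: cell viability readout used to quantify reduction in proliferation of human SK-HEP-1 cells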
Description: SANGER: Inhibition of human SK-HEP-1 cell growth in a cell viability assay.

CaR-1 = assay: cells; format: functional, cell-based; conditions: Homo sapiens;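 also: growth inhibition of human CaR-1 cancer cells, read out with a cell viability assay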
Description: SANGER: Inhibition of human CaR-1 cell growth in a cell viability assay.

SK-OV-3 = assay: cells; format: functional, cell-based; conditions: Homo sapiens;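 also: growth inhibition of SK-OV-3 human cells, read out with a cell viability assay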
Description: SANGER: Inhibition of human SK-OV-3 cell growth in a cell viability assay.

IGROV-1 = assay: cells; format: functional, cell-based; conditions: Homo sapiens;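 also: reduction of IGROV-1 cell growth, read out with a viability assay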
Description: SANGER: Inhibition of human IGROV-1 cell growth in a cell viability assay.

NCI-H2141 = assay: cells; format: functional, cell-based, Homo sapiens; conditions: Homo sapiens, NCI-H2141;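 also: growth inhibition of human NCI-H2141 cells, read out with a cell viability assay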
Description: SANGER: Inhibition of human NCI-H2141 cell growth in a cell viability assay.

SW780 = assay: cells; format: functional, cell-based; conditions: Homo sapiens;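 also: growth inhibition of the cells, read out with a cell viability assay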
Description: SANGER: Inhibition of human SW780 cell growth in a cell viability assay.

NCI-H1703 = assay: cells; format: functional, cell-based; conditions: Homo sapiens;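 also: growth inhibition of NCI-H1703 cells, read out via a cell viability assay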
Description: SANGER: Inhibition of human NCI-H1703 cell growth in a cell viability assay.

CAL-33 = assay: cells; format: functional, cell-based; conditions: Homo sapiens;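 also: growth inhibition of CAL-33 cells, read out with a cell viability assay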
Description: SANGER: Inhibition of human CAL-33 cell growth in a cell viability assay.

NCI-H661 = assay: cells; format: functional, cell-based; conditions: Homo sapiens;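 also: cell viability assay read-out, IC50 being the concentration that inhibits growth of the cells by half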
Description: SANGER: Inhibition of human NCI-H661 cell growth in a cell viability assay.

NCI-H2170 = assay: cells; format: functional, cell-based; conditions: Homo sapiens;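 also: cell viability assay measuring growth inhibition of human NCI-H2170 cancer cells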
Description: SANGER: Inhibition of human NCI-H2170 cell growth in a cell viability assay.

639-V = assay: cells; format: functional, cell-based; conditions: Homo sapiens;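 also: growth inhibition of 639-V cells, read out with a cell viability assay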
Description: SANGER: Inhibition of human 639-V cell growth in a cell viability assay.

8505C = assay: cells; format: functional, cell-based; conditions: Homo sapiens
Description: SANGER: Inhibition of human 8505C cell growth in a cell viability assay.

IST-SL2 = assay: cells; format: functional, cell-based, Homo sapiens; conditions: Homo sapiens, IST-SL2;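 also: growth inhibition of human IST-SL2 cells, read out by a cell viability assay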
Description: SANGER: Inhibition of human IST-SL2 cell growth in a cell viability assay.

SR = assay: cells; format: functional, cell-based, Homo sapiens; conditions: Homo sapiens, SR
Description: SANGER: Inhibition of human SR cell growth in a cell viability assay.

DMS-273 = assay: cells; format: functional, cell-based; conditions: Homo sapiens
Description: SANGER: Inhibition of human DMS-273 cell growth in a cell viability assay.

C-33-A = assay: cells; format: functional, cell-based; conditions: Homo sapiens;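 also: cell viability assay measuring growth inhibition of C-33-A cells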
Description: SANGER: Inhibition of human C-33-A cell growth in a cell viability assay.

A 172 = assay: cells; format: functional, cell-based; conditions: Homo sapiens;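 also: growth inhibition of A172 cells, measured with a cell viability readout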
Description: SANGER: Inhibition of human A172 cell growth in a cell viability assay.

NCI-H1436 = assay: cells; format: functional, cell-based, Homo sapiens; conditions: Homo sapiens, NCI-H1436;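 also: growth suppression of human NCI-H1436 cells, determined with a cell viability readout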
Description: SANGER: Inhibition of human NCI-H1436 cell growth in a cell viability assay.

A-375 = assay: cells; format: functional, cell-based; conditions: Homo sapiens;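 also: growth inhibition of A375 cells, read out with a cell viability assay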
Description: SANGER: Inhibition of human A375 cell growth in a cell viability assay.

SAOS-2 = assay: cells; format: functional, cell-based; conditions: Homo sapiens;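 also: growth inhibition of human Saos-2 cells determined by a cell viability assay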
Description: SANGER: Inhibition of human Saos-2 cell growth in a cell viability assay.

SW756 = assay: cells; format: functional, cell-based; conditions: Homo sapiens;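 also: growth inhibition of human SW756 cells, read out with a cell viability assay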
Description: SANGER: Inhibition of human SW756 cell growth in a cell viability assay.

CAL-120 = assay: cells; format: functional, cell-based; conditions: Homo sapiens;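 also: cell growth inhibition, read out as cell viability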
Description: SANGER: Inhibition of human CAL-120 cell growth in a cell viability assay.

PC-3 = assay: cells; format: functional, cell-based; conditions: Homo sapiens;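 also: cell viability assay measuring growth inhibition of PC-3 cells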
Description: SANGER: Inhibition of human PC-3 cell growth in a cell viability assay.

EW-24 = assay: cells; format: functional, cell-based, Homo sapiens; conditions: Homo sapiens, EW-24;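 also: human EW-24 cancer cell line, growth inhibition read out via a cell viability assay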
Description: SANGER: Inhibition of human EW-24 cell growth in a cell viability assay.

VM-CUB-1 = assay: cells; format: functional, cell-based; conditions: Homo sapiens;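 also: cell viability assay measuring growth inhibition of the human VM-CUB-1 cell line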
Description: SANGER: Inhibition of human VM-CUB-1 cell growth in a cell viability assay.

SBC-5 = assay: cells; format: functional, cell-based; conditions: Homo sapiens;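 also: cell viability assay read-out, IC50 is the concentration that inhibits growth of the cells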
Description: SANGER: Inhibition of human SBC-5 cell growth in a cell viability assay.

HT1197 = assay: cells; format: functional, cell-based, HT-1197; conditions: Homo sapiens
Description: SANGER: Inhibition of human HT-1197 cell growth in a cell viability assay.

SK-MEL-30 = assay: cells; format: functional, cell-based; conditions: Homo sapiens;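 also: growth inhibition of SK-MEL-30 cells, determined with a cell viability assay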
Description: SANGER: Inhibition of human SK-MEL-30 cell growth in a cell viability assay.

NCI-H187 = assay: cells; format: functional, cell-based, Homo sapiens; conditions: Homo sapiens, NCI-H187;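 also: growth inhibition of NCI-H187 cells, read out as cell viability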
Description: SANGER: Inhibition of human NCI-H187 cell growth in a cell viability assay.

647-V = assay: cells; format: functional, cell-based; conditions: Homo sapiens;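 also: growth inhibition of 647-V cells, read out with a cell viability assay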
Description: SANGER: Inhibition of human 647-V cell growth in a cell viability assay.

KARPAS-422 = assay: cells; format: functional, cell-based, Homo sapiens; conditions: Homo sapiens, KARPAS-422
Description: SANGER: Inhibition of human KARPAS-422 cell growth in a cell viability assay.

769-P = assay: cells; format: functional, cell-based; conditions: Homo sapiens
Description: SANGER: Inhibition of human 769-P cell growth in a cell viability assay.

AN3-CA = assay: cells; format: functional, cell-based; conditions: Homo sapiens;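 also: growth inhibition of human AN3-CA cells measured by a cell viability assay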
Description: SANGER: Inhibition of human AN3-CA cell growth in a cell viability assay.

COc1ccc(-c2cc3nccn3c(Nc3ncccc3C(N)=O)n2)cc1OC
IC50 (NCI-H596): > 8 µM | IC50 (DK-MG): > 8 µM | IC50 (K052): > 8 µM | IC50 (KYSE-140): 3.75 µM | IC50 (LB373-MEL-D): > 8 µM | IC50 (ST486): 0.576 µM | IC50 (LB647-SCLC): > 8 µM | IC50 (A-431): 1.73 µM | IC50 (HT-1376): 3.25 µM | IC50 (NCI-H322M): > 8 µM | IC50 (Ca-Ski): 4.55 µM | IC50 (NCI-H1882): > 8 µM | IC50 (HCC1954): > 8 µM | IC50 (SK-MEL3): 5.06 µM | IC50 (BL-70): 0.671 µM | IC50 (HGC-27): 2.7 µM | IC50 (NCI-H2052): > 8 µM | IC50 (NCI-H1522): > 8 µM | IC50 (RVH-421): > 8 µM | IC50 (CESS): 1.45 µM | IC50 (SW1783): > 8 µM | IC50 (SW48): 7.73 µM | IC50 (A204): > 8 µM | IC50 (HCC1395): > 8 µM | IC50 (SK-HEP1): 1.82 µM | IC50 (CaR-1): > 8 µM | IC50 (SK-OV-3): > 8 µM | IC50 (IGROV-1): 2.53 µM | IC50 (NCI-H2141): > 8 µM | IC50 (SW780): > 8 µM | IC50 (NCI-H1703): > 8 µM | IC50 (CAL-33): > 8 µM | IC50 (NCI-H661): > 8 µM | IC50 (NCI-H2170): 5.35 µM | IC50 (639-V): 1.43 µM | IC50 (8505C): 1.77 µM | IC50 (IST-SL2): 1.07 µM | IC50 (SR): 0.548 µM | IC50 (DMS-273): 6.61 µM | IC50 (C-33-A): 2.53 µM | IC50 (A 172): 2.22 µM | IC50 (NCI-H1436): > 8 µM | IC50 (A-375): 1.27 µM | IC50 (SAOS-2): > 8 µM | IC50 (SW756): > 8 µM | IC50 (CAL-120): > 8 µM | IC50 (PC-3): > 8 µM | IC50 (EW-24): > 8 µM | IC50 (VM-CUB-1): > 8 µM | IC50 (SBC-5): > 8 µM | IC50 (HT1197): > 8 µM | IC50 (SK-MEL-30): > 8 µM | IC50 (NCI-H187): > 8 µM | IC50 (647-V): 7.3 µM | IC50 (KARPAS-422): 2.5 µM | IC50 (769-P): 0.98 µM | IC50 (AN3-CA): 4.66 µM

O=S(=O)(O)c1ccc2cc(/N=N/c3cc(S(=O)(=O)O)c4cccnc4c3O)ccc2c1
IC50 (NCI-H596): > 16 µM | IC50 (DK-MG): > 16 µM | IC50 (K052): > 16 µM | IC50 (KYSE-140): > 16 µM | IC50 (LB373-MEL-D): > 16 µM | IC50 (ST486): > 16 µM | IC50 (LB647-SCLC): > 16 µM | IC50 (A-431): > 16 µM | IC50 (HT-1376): > 16 µM | IC50 (NCI-H322M): > 16 µM | IC50 (Ca-Ski): > 16 µM | IC50 (NCI-H1882): > 16 µM | IC50 (HCC1954): > 16 µM | IC50 (SK-MEL3): > 16 µM | IC50 (BL-70): > 16 µM | IC50 (HGC-27): > 16 µM | IC50 (NCI-H2052): > 16 µM | IC50 (NCI-H1522): > 16 µM | IC50 (RVH-421): > 16 µM | IC50 (CESS): > 16 µM | IC50 (SW1783): > 16 µM | IC50 (SW48): > 16 µM | IC50 (A204): > 16 µM | IC50 (HCC1395): > 16 µM | IC50 (SK-HEP1): > 16 µM | IC50 (CaR-1): > 16 µM | IC50 (SK-OV-3): > 16 µM | IC50 (IGROV-1): > 16 µM | IC50 (NCI-H2141): > 16 µM | IC50 (SW780): > 16 µM | IC50 (NCI-H1703): > 16 µM | IC50 (CAL-33): > 16 µM | IC50 (NCI-H661): > 16 µM | IC50 (NCI-H2170): > 16 µM | IC50 (639-V): > 16 µM | IC50 (8505C): > 16 µM | IC50 (IST-SL2): > 16 µM | IC50 (SR): > 16 µM | IC50 (DMS-273): > 16 µM | IC50 (C-33-A): > 16 µM | IC50 (A 172): > 16 µM | IC50 (NCI-H1436): > 16 µM | IC50 (A-375): > 16 µM | IC50 (SAOS-2): > 16 µM | IC50 (SW756): > 16 µM | IC50 (CAL-120): > 16 µM | IC50 (PC-3): > 16 µM | IC50 (EW-24): > 16 µM | IC50 (VM-CUB-1): > 16 µM | IC50 (SBC-5): > 16 µM | IC50 (HT1197): > 16 µM | IC50 (SK-MEL-30): > 16 µM | IC50 (NCI-H187): > 16 µM | IC50 (647-V): > 16 µM | IC50 (KARPAS-422): > 16 µM | IC50 (769-P): > 16 µM | IC50 (AN3-CA): 14.1 µM

CCCCCCCCCCCC1=C(O)C(=O)C=C(O)C1=O [EMBELIN]
IC50 (NCI-H596): 15.4 µM | IC50 (DK-MG): > 32 µM | IC50 (K052): 29 µM | IC50 (KYSE-140): 5.04 µM | IC50 (LB373-MEL-D): 24.2 µM | IC50 (ST486): 8.3 µM | IC50 (LB647-SCLC): > 32 µM | IC50 (A-431): 5.76 µM | IC50 (HT-1376): 5.9 µM | IC50 (NCI-H322M): > 32 µM | IC50 (Ca-Ski): 18.2 µM | IC50 (NCI-H1882): > 32 µM | IC50 (HCC1954): 11.3 µM | IC50 (SK-MEL3): 16.2 µM | IC50 (BL-70): 5.83 µM | IC50 (HGC-27): 7.95 µM | IC50 (NCI-H2052): 8.53 µM | IC50 (NCI-H1522): 30.6 µM | IC50 (RVH-421): 11.5 µM | IC50 (CESS): 6.24 µM | IC50 (SW1783): 10.1 µM | IC50 (SW48): 31.1 µM | IC50 (A204): 17.4 µM | IC50 (HCC1395): > 32 µM | IC50 (SK-HEP1): 9.58 µM | IC50 (CaR-1): > 32 µM | IC50 (SK-OV-3): 10.9 µM | IC50 (IGROV-1): 5.64 µM | IC50 (NCI-H2141): 26.8 µM | IC50 (SW780): > 32 µM | IC50 (NCI-H1703): 19.1 µM | IC50 (CAL-33): 22.9 µM | IC50 (NCI-H661): 19.2 µM | IC50 (NCI-H2170): 12.1 µM | IC50 (639-V): > 32 µM | IC50 (8505C): 14.1 µM | IC50 (IST-SL2): > 32 µM | IC50 (SR): 28.2 µM | IC50 (DMS-273): 4.06 µM | IC50 (C-33-A): > 32 µM | IC50 (A 172): 8.78 µM | IC50 (NCI-H1436): > 32 µM | IC50 (A-375): 3.57 µM | IC50 (SAOS-2): 3.95 µM | IC50 (SW756): > 32 µM | IC50 (CAL-120): 24 µM | IC50 (PC-3): 14.8 µM | IC50 (EW-24): > 32 µM | IC50 (VM-CUB-1): 10.8 µM | IC50 (SBC-5): > 32 µM | IC50 (HT1197): 25.3 µM | IC50 (SK-MEL-30): 12.8 µM | IC50 (NCI-H187): > 32 µM | IC50 (647-V): 24.5 µM | IC50 (KARPAS-422): 20.7 µM | IC50 (769-P): 8.47 µM | IC50 (AN3-CA): 6.25 µM
